This is an account of results in ChEMBL document CHEMBL2440091, “The enzyme 3-hydroxykynurenine transaminase as potential target for 1,2,4-oxadiazoles with larvicide activity against the dengue vector Aedes aegypti” (2013).

Molecules are shown by their SMILES. Converted amounts (≈) assume the structure as drawn. The source made the active and inactive calls. No cut-off for these calls is given here. Some results are limits rather than exact numbers.

The first test deals with Aedes aegypti. Kind of test: Larvicidal activity against fourth instar larvae of Aedes aegypti assessed as induction of alterations in pigmentation pattern at 100 ppm after 24 hrs by microscopic analysis. It counts as functional, organism-based.
Regarding `COC(=O)CCc1cc(-c2ccccc2)no1`, the outcome was Active.

As for `O=C(O)CCc1nc(-c2ccc(Br)cc2)no1`, the result was Active.

For the molecule `O=C(O)CCc1cc(-c2ccccc2)no1`, the outcome was Active.

The test system of another test is Aedes aegypti. Kind of test: Larvicidal activity against fourth instar larvae of Aedes aegypti assessed as mortality after 48 hrs. It counts as functional.
As for `O=C(O)CCc1nc(-c2ccc(Cl)cc2)no1`, the median lethal concentration (LC50) turned out to be 28.1 µg/mL (≈ 111 µM).

With `O=C(O)CCc1nc(-c2ccc(F)cc2)no1`, the LC50 was found to be 81.2 µg/mL (≈ 344 µM).

As to `COC(=O)CCc1cc(-c2ccccc2)no1`, the LC50 stood at 13.2 µg/mL (≈ 57.1 µM).

On to `O=C(O)CCc1nc(-c2ccccc2)no1`, for which the LC50 was 98.6 µg/mL (≈ 452 µM).

Regarding `O=C(O)CCCc1nc(-c2ccc(Br)cc2)no1`, the 50% lethal concentration (LC50) stood at 10.6 µg/mL (≈ 34.1 µM).

For the molecule `O=C(O)CCCc1nc(-c2ccc(I)cc2)no1`, the LC50 was 16.2 µg/mL (≈ 45.2 µM).

As for `OCCCc1cc(-c2ccccc2)no1`, the LC50 is over 100 µg/mL.

For `COc1ccc(-c2noc(CCC(=O)O)n2)cc1`, the LC50 came out at 71.5 µg/mL (≈ 288 µM).

Consider `O=C(O)CCCc1nc(-c2ccccc2)no1`, for which the LC50 came out at 92.7 µg/mL (≈ 399 µM).

On to `COc1ccc(-c2noc(CCCC(=O)O)n2)cc1`, for which the LC50 was over 100 µg/mL.

Consider `COC(=O)CCCc1nc(-c2ccc(Cl)c(Cl)c2)no1`, for which the LC50 amounted to 6.8 µg/mL (≈ 21.6 µM).

In the case of `Cc1cccc(-c2noc(CCCC(=O)O)n2)c1`, the LC50 was determined as 75.9 µg/mL (≈ 308 µM).

As for `Cc1ccc(-c2noc(CC(=O)O)n2)cc1`, the LC50 amounted to 92.3 µg/mL (≈ 423 µM).

For `O=C(O)Cc1nc(-c2ccccc2)no1`, the 50% lethal concentration (LC50) was over 100 µg/mL.

Consider `O=C(O)CCCc1nc(-c2ccc3c(c2)OCO3)no1`, for which the LC50 was found to be 72.9 µg/mL (≈ 264 µM).

With `O=C(O)CCCc1nc(-c2ccc(Cl)cc2)no1`, the LC50 was 34.9 µg/mL (≈ 131 µM).

For `CC(=O)CCc1nc(-c2ccccc2)no1`, the LC50 is over 100 µg/mL.

On to `Cc1ccc(-c2noc(CCC(=O)O)n2)cc1`, for which the median lethal concentration (LC50) was found to be 65.8 µg/mL (≈ 283 µM).

As for `COC(=O)CCCc1nc(-c2ccccc2)no1`, the LC50 was determined as 59.9 µg/mL (≈ 243 µM).

On to `O=C(O)Cc1nc(-c2ccc(Br)cc2)no1`, for which the LC50 came out at 67.9 µg/mL (≈ 240 µM).

As to `COC(=O)CCc1nc(-c2ccccc2)no1`, the 50% lethal concentration (LC50) worked out at 30.6 µg/mL (≈ 132 µM).

As to `Cc1ccccc1-c1noc(CCC(=O)O)n1`, the LC50 was found to be 70.9 µg/mL (≈ 305 µM).

For `O=C(O)CCc1nc(-c2ccc(Br)cc2)no1`, the LC50 is 15.2 µg/mL (≈ 51.2 µM).

Turning to `O=C(O)CCc1cc(-c2ccccc2)no1`, the LC50 stood at 82.8 µg/mL (≈ 381 µM).

For `O=C(O)Cc1nc(-c2ccc(Cl)cc2)no1`, the LC50 stood at 49.3 µg/mL (≈ 207 µM).

With `Cc1cccc(-c2noc(CCC(=O)O)n2)c1`, the LC50 came out at 63.8 µg/mL (≈ 275 µM).

As for `O=C(O)CCc1nc(-c2ccc([N+](=O)[O-])cc2)no1`, the LC50 came out at 50.5 µg/mL (≈ 192 µM).

As usually defined, the LC50 is the concentration that kills 50% of the test population.
